The subject of assay [1] is Chromobacterium violaceum. The experiment in a line: Inhibition of quorum sensing system in Chromobacterium violaceum ATCC 31532 assessed as reduction in violacein production at 400 uM relative to control.
The subject of assay [2] is Chromobacterium violaceum. The experiment in a line: Bactericidal activity against Chromobacterium violaceum ATCC 31532 at 400 uM by resazurin dye based assay relative to control. The format is functional. In general terms: The colour change of resazurin is a common sign of viable cells or microbes.
Assay [3] has as its system Chromobacterium violaceum. The experiment in a line: Bactericidal activity against violacein-negative Chromobacterium violaceum CV026 mini-Tn5 mutant at 400 uM by resazurin dye based assay relative to control. The format is functional.
In assay [4] the test system is Chromobacterium violaceum. Put plainly: Inhibition of quorum sensing in Chromobacterium violaceum ATCC 31532 assessed as reduction in violacein production at 400 uM relative to control.
Assay [5] concerns Chromobacterium violaceum. The experiment in a line: Inhibition of quorum sensing in Chromobacterium violaceum ATCC 31532 assessed as quorum quenching by measuring violacein production at 40 uM in presence of C6-HSL.
Assay [6] has as its system Chromobacterium violaceum. Put plainly: Inhibition of quorum sensing in violacein-negative Chromobacterium violaceum CV026 mini-Tn5 mutant assessed as quorum quenching by measuring violacein production at 400 uM in presence of C6-HSL relative to control. Details: scale not given: the % may be the effect or the level left.
The test system of assay [7] is Chromobacterium violaceum. Put plainly: Inhibition of quorum sensing in violacein-negative Chromobacterium violaceum CV026 mini-Tn5 mutant assessed as quorum quenching by measuring violacein production at 40 uM in presence of C6-HSL relative to control. The arrangement: scale not given: the % may be the effect or the level left.
In assay [8] the test system is Chromobacterium violaceum. Put plainly: Bactericidal activity against Chromobacterium violaceum ATCC 31532 assessed as reduction in cell viability at 400 uM by resazurin dye based assay relative to control.
Assay [9] deals with Chromobacterium violaceum. The experiment in a line: Inhibition of quorum sensing in Chromobacterium violaceum ATCC 31532 assessed as reduction in violacein production at 40 uM relative to control.

Calls of active or inactive are those of the source. The rule behind the calls is not given here.

Take `COc1cc(NC(C)CCCNC(=O)/C=C/C(=O)Nc2ccc(C(F)(F)F)cc2)c2ncccc2c1` (stereo unspecified): in assay [1], the inhibition result was “inactive”. For the same compound, the Activity in [2] turned out to be 31.2%.

In the case of `O=C(/C=C/C(=O)Nc1ccc(F)cc1)NCCCCNc1cc(C(F)(F)F)nc2c(C(F)(F)F)cccc12`, in assay [1], the inhibition is 29.1%. For the same compound, in assay [2], the outcome was inactive.

In the case of `O=C(/C=C/C(=O)Nc1cccc(C(F)(F)F)c1)NCCCCNc1ccnc2cc(Cl)ccc12`, the inhibition entry in assay [1] is “inactive”. The outcome in [2] was inactive.

Regarding `Nc1ccc(NC(=O)/C=C/C(=O)NCCCCNc2ccnc3cc(Cl)ccc23)cc1`, the inhibition in [1] was 4.7%. Further, the Activity in assay [2] is 17.5%.

Consider `O=C(/C=C/C(=O)Nc1ccc(C(F)(F)F)cc1)NCCCCNc1cc(C(F)(F)F)nc2c(C(F)(F)F)cccc12`, for which the inhibition entry in assay [1] was “inactive”. The result in assay [2] was inactive.

Turning to `O=C(/C=C/C(=O)Nc1ccc(F)cc1)NCCCCNc1ccnc2cc(Cl)ccc12`, the results for the inhibition in [1] and in assay [4] were 87.9% and 75%, respectively. For the same compound, the result in assay [3], in assay [5] and in assay [6] was inactive. For the same compound, the Activity in [2] worked out at 39.7%.

In the case of `COc1cc(NC(C)CCCNC(=O)/C=C/C(=O)Nc2cccc(Cl)c2)c2ncccc2c1` (stereo unspecified), in assay [1], the inhibition result was “inactive”. In assay [2], the Activity was 17.9%.

As for `CC[C@H]1OC(=O)[C@H](C)[C@@H](O[C@H]2C[C@@](C)(OC)[C@@H](O)[C@H](C)O2)[C@H](C)[C@@H](O[C@@H]2O[C@H](C)C[C@H](N(C)C)[C@H]2O)[C@](C)(O)C[C@@H](C)CN(C)[C@H](C)[C@@H](O)[C@]1(C)O` [AZITHROMYCIN], the inhibition in [1] and in assay [4] was 90.6% throughout. Further, the Activity in assay [3] is 67.2%; in assay [6], 86.3%; in assay [7] it was 86.3%; in assay [2] it was 85.6%.

On to `O=c1c(O)c(-c2ccc(O)c(O)c2)oc2cc(O)cc(O)c12` [QUERCETIN], for which the inhibition in assay [1] was 55.8%. The figures for the Activity in assay [3], in [6] and in [2] were 17.1%, 66.8% and 14.7%, respectively.

`O=C(/C=C/C(=O)Nc1cccc(Cl)c1)NCCCCNc1ccnc2cc(Cl)ccc12`: the figures for the Activity in [8] and in [2] were 27% and 45.8%, respectively. The inhibition in [1] turned out to be 75.3%; in assay [4], 75%. The outcome in assay [3] and in assay [6] was inactive.

Turning to `CC(C)(C)OC(=O)N1CCC(NC(=O)/C=C/C(=O)NCCCCNc2ccnc3cc(Cl)ccc23)CC1`, the inhibition entry in [1] is “inactive”. The compound further gave an Activity in assay [2] of 8.3%.

Take `NC1CCN(C(=O)/C=C/C(=O)NCCCCNc2ccnc3cc(Cl)ccc23)CC1`: the inhibition in assay [1] came out at 47.2%; in assay [9], 7%. Moreover, the Activity in assay [3] is 13.4%; in assay [6], 62.6%; in [7] it was 39.9%; in assay [2], 16.2%.

For `NCCNC(=O)/C=C/C(=O)NCCCCNc1ccnc2cc(Cl)ccc12`, the inhibition in assay [1] is 46.3%. Further, the Activity is 10.3% in [3], 53.3% in assay [6], 52.5% in assay [7] and 12.1% in assay [2]. The inhibition result in [9] was “inactive”.

Take `O=C(/C=C/C(=O)Nc1cccc(Cl)c1)NCCCCNc1cc(C(F)(F)F)nc2c(C(F)(F)F)cccc12`: in assay [1], the inhibition is 22.3%. The same compound came in with an Activity in assay [2] of 22.3%.

In the case of `CCN(CC)CCCC(C)Nc1ccnc2cc(Cl)ccc12` (stereo unspecified) [CHLOROQUINE], in [1], the inhibition amounted to 13.2%. This compound also had an Activity in assay [2] of 10.1%.

In the case of `COc1cc(NC(C)CCCNC(=O)/C=C/C(=O)Nc2cccc(C(F)(F)F)c2)c2ncccc2c1` (stereo unspecified), the inhibition entry in [1] was “inactive”. Further, the result in assay [5] was inactive. In [2], this compound returned an Activity of 16.4%.

As to `COc1cc(NC(C)CCCNC(=O)/C=C/C(=O)Nc2ccc(F)cc2)c2ncccc2c1` (stereo unspecified), the inhibition entry in assay [1] was “inactive”. The Activity in [2] amounted to 24.2%.

With `CC(C)(C)OC(=O)NC1CCN(C(=O)/C=C/C(=O)NCCCCNc2ccnc3cc(Cl)ccc23)CC1`, in assay [1], the inhibition was determined as 9.1%. In assay [2], this compound registered an Activity of 44.6%.

With `O=C(/C=C/C(=O)Nc1cccc(F)c1)NCCCCNc1ccnc2cc(Cl)ccc12`, the Activity in assay [8] was determined as 27%; in [2], 27.8%. Besides, the figures for the inhibition in assay [1] and in assay [4] were 79.4% and 75%, respectively. Besides, the result in assay [3], in assay [5] and in assay [6] was inactive.

Turning to `CC(C)(C)OC(=O)Nc1ccc(NC(=O)/C=C/C(=O)NCCCCNc2ccnc3cc(Cl)ccc23)cc1`, in [1], the inhibition entry was “inactive”. For the same compound, the Activity in assay [2] is 43.7%.

Take `O=C(/C=C/C(=O)Nc1cccc(C(F)(F)F)c1)NCCCCNc1cc(C(F)(F)F)nc2c(C(F)(F)F)cccc12`: the inhibition in [1] came to 22.3%. The compound also returned an Activity in assay [2] of 13.8%.

For the compound `COc1cc(NC(C)CCCN)c2ncccc2c1` (stereo unspecified), the inhibition result in [1] was “inactive”. For the same compound, the result in [3], in assay [6] and in assay [2] was inactive.

Regarding `O=C(/C=C/C(=O)NC1CCNCC1)NCCCCNc1ccnc2cc(Cl)ccc12`, the inhibition in assay [1] was found to be 45.9%; in [9], 5.4%. Also, the Activity in assay [3] came out at 10.3%; in [6] it was 61.6%; in assay [7] it was 42.8%; in [2] it was 6.5%.

Consider `CC(C)(C)OC(=O)NCCNC(=O)/C=C/C(=O)NCCCCNc1ccnc2cc(Cl)ccc12`, for which the inhibition in [1] was 23%. This compound displayed an Activity in assay [2] of 10.7%.

On to `O=C(/C=C/C(=O)Nc1ccc(Cl)cc1)NCCCCNc1ccnc2cc(Cl)ccc12`, for which the figures for the Activity in assay [8] and in [2] were 27% and 56.9%, respectively. In addition, in assay [1], the inhibition amounted to 85%. Also, the result in assay [3], in [5] and in [6] was inactive.

In the case of `O=C(/C=C/C(=O)Nc1ccc(C(F)(F)F)cc1)NCCCCNc1ccnc2cc(Cl)ccc12`, the inhibition in assay [1] is 85.7%. Further, the outcome in [3], in assay [5] and in [6] was inactive. The compound further returned an Activity in assay [2] of 27.7%.

As for `COc1cc(NC(C)CCCNC(=O)/C=C/C(=O)Nc2cccc(F)c2)c2ncccc2c1` (stereo unspecified), in assay [1], the inhibition entry is “inactive”. Besides, the result in [2] was inactive.

As to `O=C(/C=C/C(=O)Nc1cccc(F)c1)NCCCCNc1cc(C(F)(F)F)nc2c(C(F)(F)F)cccc12`, the inhibition in assay [1] stood at 16.9%. Further, in assay [2], the outcome was inactive.

For the compound `O=C(/C=C/C(=O)Nc1ccc(Cl)cc1)NCCCCNc1cc(C(F)(F)F)nc2c(C(F)(F)F)cccc12`, the inhibition in assay [1] worked out at 29.9%. Moreover, the outcome in [2] was inactive.

As to `COc1cc(NC(C)CCCNC(=O)/C=C/C(=O)Nc2ccc(Cl)cc2)c2ncccc2c1` (stereo unspecified), in assay [1], the inhibition entry was “inactive”. The result in assay [2] was inactive.

In general, inhibition refers to the relative decrease from the control value, in per cent.

Values taken from ChEMBL document CHEMBL4725270, “Chloroquine fumardiamides as novel quorum sensing inhibitors” (2020).
